# Experimental data as given in US11839661B2, “Rapid formation of supramolecular hydrogels by short peptide and bioactive small molecules” (BRANDEIS UNIVERSITY, priority 2017, dated 2023).
# Square brackets hold non-standard residues; d marks the D form. Ends that are not written are not given here. Peptide text beside a SMILES is read from it. * marks the point of attachment. Acetyl(thymin-1-yl) = Cc1cn(CC(=O)*)c(=O)[nH]c1=O; Acetyl(2-naphthyl) = O=C(Cc1ccc2ccccc2c1)*
# Legend:
# [1] = test system: MES-SA/dx5 cells; assay: CLSM of inhibition of Dox efflux pump; format: cell-based; conditions: MES-SA/dx5 cells without NP1 treatment, five hours after changing to medium without Dox
# Description: Confocal Laser Scanning Microscopy (CLSM) Images of the Inhibition of Efflux Pump: To determine the potential drug efflux inhibitory effect by nucleopeptides, the drug efflux of free DOX was evaluated without or with incubation with nucleopeptide in efflux pumps overexpressing MES-SA/dx5 cells. After seeding 1.5×10^5 cells into 3.5 cm confocal dish and incubating at 37° C. for 24 h, the cells were incubated either with 10 μM free Dox or Dox with different concentration of nucleopeptide for 4 h. Then the medium was removed and the cells were washed three times with culture medium, and subsequently incubated with fresh complete medium for different time intervals (0, 2 or 5 h). At the end of incubation time, the cells were washed twice by live cell imaging buffer and stained nucleus by Hoechst 33342 for 10 minutes. After washed twice by live cell imaging, the cells were imaged immediately by Zeiss 880 microscope at the lens of 60×.
# [2] = test system: MES-SA/dx5 cells; assay: MTT assay; format: cell-based; conditions: 48 hours
# Description: Cell culture and MTT assay: Cell culture was carried out with MES-SA/dx5 cells purchased from Sigma-Aldrich Corporation. These cells were cultured in Macyo's 5A medium supplemented with 10% v/v fetal bovine serum, 100 U/mL penicillin and 100 μg/mL streptomycin. The condition for cell culture was 37° C. in a humidified atmosphere of 5% CO2. The MTT assay was carried out using MES-SA/dx5 cells seeded in a 96-well plate with a density of 1*10^4 cells per-well (total medium volume of 100 μL). 24 hours post seeding, after the removal of the medium, solutions with serial of concentrations (5 concentrations) of different nucleopeptides were added to each well. Cells without the treatment of the precursors were used as the control. At designated time (24/48/72 hours), 10 μL MTT solution (5 mg/mL) was added to each well and incubated at 37° C. for another 4 h, and then 100 μL of SDS-HCl solution was added to stop the reduction reaction and dissolve the purple formazan. The absorbance of each well at 595 nm was measured by a multimode microplate reader. The cytotoxicity assay was performed three times and the average value of the three measurements was taken. All the statistical analysis used mean±SEM. The range of SEM is from 0.04 to 2.21.
# [3] = Rheology (storage and loss moduli); format: physicochemical
# Description: Rheology Experiments: The rheological tests were performed on TA ARES-G2 rheometer, parallel-plate geometry with an upper plate diameter of 25 mm and a gap of 0.4 mm. During the measurement, the stage temperature was maintained at 25° C. by Peltier heating/cooling system. The hydrogel was loaded into stage by spatula. For the rheology testing in Examples 1-7, a time sweep was performed at the frequency of 6.28 rad/s and the strain for 1.0%, and a frequency sweep was performed at the range of 0.1 to 200 rad/s and strain is 1.0%. For the rheology testing in Examples 8-12, a strain sweep (0.1% to 100%) was performed at the frequency of 6.28 rad/s, and a frequency sweep was performed at the range of 0.1 to 200 rad/s and strain is 1.0%.
# [4] = Hydrogelation / gelation time by vial inverse method; format: physicochemical
# Description: Hydrogel Preparation: Compound 1 (5.0 mg) was dissolved in 1 mL of aqueous buffer (sodium hydroxide was used to adjust the final pH to 7.4), and the hydrogels were formed after the addition of different equivalents of small molecules (initial concentration is 100 mM), the final concentration of 1 is 0.4 wt % in all hydrogels. The gelation time of 1 with different bioactive small molecules was determined by vial inverse method.
# [5] = Doxorubicin release from hydrogel; format: physicochemical; conditions: hydrogel of 1 (0.4 wt %) formed with 1 equivalent pyridoxal, Dox 200 μg/mL, 37° C.
# Description: To load the drug, a solution of Dox (1 mg/mL) was added during the gelling process. After the hydrogel formed by addition of pyridoxal or ATP (final concentration of 1 is 0.4 wt % and doxorubicin was 200 μg/mL). 0.25 mL of PBS (0.1 M phosphate-buffered saline (PBS, pH 7.4) or 0.1 M acetate buffer solution (pH 5.0)) was added onto the surface of the hydrogels, 0.2 mL of solution was taken out at the desired time point and 0.2 mL of PBS was added back. For the following time points, 0.2 mL of PBS was taken out and 0.2 mL of PBS was added back at each point. Using this process, the release of Dox was monitored by measuring the absorbance of Dox at wavelength of 480 nm, and its release profile calculated. The experiment was performed at 37° C. in triplicate. The results are shown in FIGS. 9A-B. As expected, the hydrogel releases the Dox according to the type of small bioactive molecules and pH.
# [6] = test system: HS-5 (Human Bone Marrow Stromal) cell lines; assay: Biocompatibility with HS-5 cell lines; format: cell-based; conditions: HS-5 cells, over 3 days, concentration range 20-500 μM
# Text: The biocompatibility of peptide 1 with HS-5 (Human Bone Marrow Stromal) cell lines was investigated over 3 days. […] It is expected, therefore, that peptide 1 is also compatible with other types of physiologically normal cells.
# [7] = biological target: MBP-ASC^PYD (Homo sapiens, UniProt Q9ULZ3); assay: TEM of MBP-ASC^PYD oligomerization on co-incubation with P5P; format: biochemical; conditions: P5P 100 μM co-incubated with MBP-ASC^PYD (1 mg/mL, ~18 μM)
# [8] = Sequestration of ATP by nucleopeptide (phase transition); format: binding
# Description: (§1) Sample Preparation and Process for Sequestering ATP by Nucleopeptide: Typically, nucleopeptide […] was dissolved in 1 mL of PBS buffer. A minimal amount of sodium hydroxide was used to adjust the final pH to 7.4 to form 5.0 wt % solution of the nucleopeptide. ATP or ADP was dissolved in PBS buffer at the concentration of 100 mM with the final pH of 7.4. To test sequestration ability of nucleopeptide, we mixed the solution of 5.0 wt % of nucleopeptide with ATP (ADP) in different molar ratio and stirred the mixture with pipettor gently. The mixture was kept at room temperature and used for different characterizations. The sequestration of ATP (or ADP) results in phase transition, from the solution to precipitates or hydrogel, which is observable by naked eyes. Such phase transitions were further characterized by TEM, CD, SLS and rheology according to the same procedure for sample preparation.
# [9] = Interaction of nucleopeptide with ADP (phase transition); format: binding; conditions: PBS buffer pH 7.4
# Description: as §1
# [10] = 1 at 0.4 wt %, 1 equivalent folinic acid
# [11] = 1 at 0.4 wt %, 1 equivalent pyridoxal
# [12] = 1 at 0.4 wt %, 4 equivalents folinic acid
# [13] = 1 at 0.4 wt %, 4 equivalents pyridoxal
# MBP-ASC^PYD, sequence (Q9ULZ3 1-91 limits assumed): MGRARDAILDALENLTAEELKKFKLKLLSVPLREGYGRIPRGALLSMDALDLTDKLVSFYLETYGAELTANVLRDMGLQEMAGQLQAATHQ
compound,measurement,setting,value
"COc1cccc2c1C(=O)c1c(O)c3c(c(O)c1C2=O)C[C@@](O)(C(=O)CO)C[C@@H]3O[C@H]1C[C@H](N)[C@H](O)[C@H](C)O1 [Dox, doxorubicin, reference compound]",cellular retention of Dox (efflux),[1],little Dox
same,cell death,[2]; Dox alone (5 mm as printed),46%
"Cc1cn(CC(=O)N[C@H](Cc2ccccc2)C(=O)N[C@H](Cc2ccccc2)C(=O)N[C@H](CCCCN)C(=O)N[C@H](CCCCN)C(=O)N[C@H](Cc2ccccc2)C(=O)N[C@H](CCCCN)C(=O)N[C@H](CC(C)C)C(=O)N[C@H](CCCCN)C(=O)N[C@H](CC(C)C)C(=O)O)c(=O)[nH]c1=O [NP1, thyminylacetyl-ffkkfklkl] ({Acetyl(thymin-1-yl)}-[dF][dF][dK][dK][dF][dK][dL][dK][dL]-OH)",cytotoxicity,[2]; NP1 by itself,little cytotoxicity
CC(C)C[C@H](NC(=O)[C@H](CCCCN)NC(=O)[C@H](CC(C)C)NC(=O)[C@H](CCCCN)NC(=O)[C@H](Cc1ccccc1)NC(=O)[C@H](CCCCN)NC(=O)[C@H](CCCCN)NC(=O)[C@H](Cc1ccccc1)NC(=O)[C@H](Cc1ccccc1)NC(=O)Cc1ccc2ccccc2c1)C(=O)O [Peptide 1] ({Acetyl(2-naphthyl)}-FFKKFKLKL-OH; C-terminus assumed),storage modulus,[3]; [10],64 Pa
same,cross point of G′ and G″,[3]; [11],77 s
same,storage modulus G′,[3]; [11],55 Pa
same,storage modulus,[3]; [12],78 Pa
same,storage modulus G′,[3]; [13],980 Pa
same,storage modulus G′,"[3]; 1 at 0.4 wt %, one equivalent of P5P",40 Pa
same,mechanical properties,[3]; 1 in the presence of ATP or AMP,change little
same,storage modulus G′,"[3]; 1 itself, 0.4 wt %, after 1 h incubation",around 6 Pa
same,G′ relative to hydrogel formed with 1 equivalent pyridoxal,[3]; 4 equivalents pyridoxal,18 times
same,G′ relative to G′ of 1 itself,[3]; one equivalent of P5P,8 times
same,tendency for hydrogelation (state in aqueous solution),"[4]; 1 alone, 0.4 wt %, pH 7.4",transparent viscous solution
same,gelation time,"[4]; 1 at 0.4 wt %, 1 equivalent AMP",11 s
same,gelation time,[4]; [10],about 8 seconds
same,gelation time (sol-gel phase transition),[4]; [11],190 s
same,gelation time,"[4]; 1 at 0.4 wt %, 1 or 4 equivalents ATP",about 7 seconds
same,gelation time,"[4]; 1 at 0.4 wt %, 4 equivalents AMP",5 s
same,gelation time,[4]; [12],~7 s
same,gelation time,[4]; [13],≤ 19 s
same,gelation time,"[4]; 1 at 0.4 wt %, four molar equivalents of P5P",4 s
same,gelation time,"[4]; 1 at 0.4 wt %, pH 7.4, equal molar P5P",≤ 10 s
same,gelation time,"[4]; 1 at 0.4 wt %, two to four molar equivalents of P5P",≤ 10 s
same,release of doxorubicin from hydrogel,"[5]; pH 5.0, 12 h",about 85%
same,release of doxorubicin from hydrogel,"[5]; pH 7.4, 12 h",50%
same,biocompatibility,[6],cell-compatible
"Cc1ncc(COP(=O)(O)O)c(C=O)c1O [Peptide P5P, pyridoxal-5-phosphate]",oligomerization of MBP-ASC^PYD,[7],modulates the oligomerization
thyminylacetyl-FF [NP11],ability to sequester ATP,[8],unable to sequester ATP
thyminylacetyl-FFK [NP10],ability to sequester ATP,[8],unable to sequester ATP
thyminylacetyl-FFKK [NP9],ability to sequester ATP,[8],unable to sequester ATP
thyminylacetyl-FFKKF ({Acetyl(thymin-1-yl)}-FFKKF) [NP6],ability to sequester ATP,[8],able to sequester ATP
thyminylacetyl-FFKKFK ({Acetyl(thymin-1-yl)}-FFKKFK) [NP8],ability to sequester ATP,[8],unable to sequester ATP
thyminylacetyl-FFKKFKL ({Acetyl(thymin-1-yl)}-FFKKFKL) [NP4],ability to sequester ATP,[8],able to sequester ATP
thyminylacetyl-FFKKFKLK ({Acetyl(thymin-1-yl)}-FFKKFKLK) [NP7],ability to sequester ATP,[8],unable to sequester ATP
thyminylacetyl-FFKKFKLKL ({Acetyl(thymin-1-yl)}-FFKKFKLKL) [NP2],phase transition in the presence of ADP,[9],remains as a transparent solution
same,ability to sequester ATP,[8],able to sequester ATP
same,phase transition after addition of ATP,[8]; PBS buffer pH 7.4,precipitates
thyminylacetyl-KKFKLKL ({Acetyl(thymin-1-yl)}-KKFKLKL) [NP12],ability to sequester ATP,[8],unable to sequester ATP
thyminylacetyl-ffkkf [NP5],ability to sequester ATP,[8],able to sequester ATP
thyminylacetyl-ffkkfkl [NP3],ability to sequester ATP,[8],able to sequester ATP
